Columns and labels:
[1] = tested on: broad spectrum of microbes; experiment: MIC, broth microdilution, across the strains tested; assay type: cell-based; conditions: E. coli, MRSA, P. aeruginosa (FIGS. 3G-I)
Protocol: Bacterial strains. S. aureus Newman was kindly provided by Prof Douglas Weibel; E. coli ATCC25922, S. aureus ATCC 33591 and P. aeruginosa ATCC 27853 were kindly donated by Prof. David Andes. E. coli DH5a was purchased from Thermo Fisher. The bacteria above were grown in Mueller Hinton Broth (MHB) media (Criterion, Santa Maria, Calif., USA). M. smegmatis mc^2155 strain was kindly donated by Prof. Adel M. Talaat, and was grown in Middlebrook 7H9 broth (HiMedia, West Chester, Pa., USA).
Minimal inhibitory concentration (MIC) measurements. The MIC of the different treatments on various bacteria strains was determined using the broth microdilution method. Briefly, 100 μL of the respective broth media containing serial twofold dilutions of each compound was placed into a 96-well tissue culture plate. Each bacterial strain was taken from an exponentially growing culture and diluted to 5×10^6 CFU/mL. 10 μL of such microbial suspension was inoculated in each well of the plate, resulting in a final bacteria concentration of approximately 5×10^5 CFU/mL. The bacteria were cultured at 37° C. for 24 h and their growth were observed by reading the optical density (OD) at 600 nm. The MIC was determined as the treatment concentration at which no microbial growth was observed. […]

E. coli ATCC 25922 [2] = experiment: Mouse thigh infection model; assay type: in vivo, ICR mice; conditions: single i.v. injection 1 h after infection, equivalent of 5 mg streptomycin/kg, thighs at 24 h
Protocol: Mouse thigh infection model. ICR mice (female, 22-24 g, Charles River) were intramuscularly inoculated with E. coli ATCC 25922 (2×10^8 CFU/mL in saline, 0.05 mL bacteria suspension per thigh) on their both thighs and randomly divided into 4 groups (n=3). The mice were treated with PBS, free streptomycin (5 mg/kg), […] through i.v. injection 1 h after the infection. 24 h after the inoculation, animals were euthanized by CO2 asphyxiation and thigh muscles were collected and homogenized in 5 mL cold PBS with glass homogenizer. The homogenates in the amount of 0.1 mL were used for serial tenfold dilutions and spread onto nutrient agar plate for CFU determination.

P. aeruginosa biofilm = experiment: Biofilm inhibition assay (crystal violet); assay type: cell-based; conditions: 256 μg/mL streptomycin
Protocol: (§1) Biofilm inhibition assays. Exponentially growing bacteria were inoculated into 96 well plates (1×10^4 cell/well) containing MHB broth with 2% (v/w) glucose, incubated under stationary conditions at 37° C. for one day. After biofilm formation, the media was discarded and the plates were washed with PBS to remove the planktonic bacteria. Fresh NMB broth containing serially diluted free streptomycin or PDC were added to the plates and incubated at 37° C. for another 24 h. The media in each well was then removed, and the plates were washed carefully with PBS for 1 time. The biofilm in each well was fixed with 95% ethanol for 15 min and stained with 0.1% crystal violet for 15 min. After washing with Milli-Q water for three times, 33% v/v acetic acid (100 μL/well) was added to solubilize the crystal violet staining. OD 560 in each well was read to determine the biofilm formation. The biofilm formed as described above was also stained with acridine orange and Cy5 labeled PDC, and monitored by CLSM to observe the PDC penetration.

E. coli biofilm = experiment: Biofilm inhibition assay (crystal violet); assay type: cell-based; conditions: streptomycin concentration 16 μg/mL
Protocol: as §1

MRSA biofilm = experiment: Biofilm inhibition assay (crystal violet); assay type: cell-based, S. aureus
Protocol: as §1

E. coli ATCC 25922 [3] = experiment: Evaluation of antibiotic resistance development (serial passaging); assay type: cell-based; conditions: sub-lethal dose (0.5 MIC)
Protocol: Evaluation of antibiotic resistance development. E. coli ATCC 25922 was employed to study the drug resistance development under sublethal dose treatments of free streptomycin, cationic polymer or the PDC. During a serial of passages, the MIC of each treatment was measured by the broth microdilution method as described above, and the bacteria were exposed to ½MIC at that particular passage. MIC for each passage was recorded and normalized to that of the first passage to determine the drug resistance enhancement.

P. aeruginosa ATCC 27853 = experiment: Mouse lung infection model; assay type: in vivo, ICR mice
Protocol: Mouse lung infection model. […] In another experiment of monitoring the mice survival for the lung infection model, the P. aeruginosa infected mice were given 2 treatments (1 h and 8 h after the infection) and their survival was observed using Kaplan-Meier curves (n=5).

Hex-Cys-Cys-DET-strep-DMA [Neutralized PDC]
effect of pH (6.0 vs 7.4) on MIC, in words [1]: performed significantly better at pH 6.0 than at 7.4
reductions in CFU (E. coli ATCC 25922 [2]): more than 4 orders
biofilm reduced / removed (P. aeruginosa biofilm): 96%
biofilm eliminated (E. coli biofilm): 75%
biofilm removed (MRSA biofilm; equivalent of 32 μg/mL streptomycin, acidic conditions): More than 90%
biofilm eliminated (MRSA biofilm; streptomycin concentration 16 μg/mL): 75%
increase in MIC after 20 passages (E. coli ATCC 25922 [3]): 2 fold
survival, in words (P. aeruginosa ATCC 27853; 2 i.v. injections (1 h and 8 h after the infection)): all of the PDC treated mice survived
bacterial burden in lungs, in words (P. aeruginosa ATCC 27853; single i.v. injection 1 h after infection, CFU per lung at 12 h): lowest bacterial burden in their lungs
